Results published in patent US20150018305A1, “SIRTUIN INDUCER, TISSUE REPAIRING AGENT, HEPATOCYTE GROWTH FACTOR INDUCER, TISSUE HOMEOSTASIS MAINTENANCE AGENT, AND TLR4 AGONIST, HAVING HYALURONIC ACID FRAGMENT AS ACTIVE INGREDIENT” (HYALURONAN RESEARCH INSTITUTE, INC., priority 2012, published 2015).

Columns and labels:
[1] = system: human epidermal keratinocytes; test: Change in size of human epidermal keratinocytes, image analysis (Test Example 3); type: cell-based; conditions: surface area on the image of a single cell; 0.01 ng/ml, 24 hours
Description: A test of sirtuin induction in human epidermal keratinocytes was conducted in the same manner as in Test Example 1.
The change in cell size was analyzed using image analysis software (“Image J”). The 5 results in Table 2 are graphed in FIG. 5. The pixel count in the results indicates surface area on the image of a single cell, with higher values considered to indicate larger cells.

[2] = system: human neural stem cells (neurospheres); test: Hydrogen peroxide induced aging of human neural stem cells, microscopy (Test Example 20); type: cell-based; conditions: 24 hours
Description: It was investigated whether the process, in which human neural stem cells (neurospheres) experienced cellular aging (vacuolar degeneration and hypertrophy) when treated with hydrogen peroxide, is affected by treatment with the hyaluronic acid fragment. Specifically, the following test was performed.
Human neural stem cells (neurospheres) (trade name Gibco Human Neural Stem Cells (H9-Derived) made by Gibco) were cultured in Neurobasal Media (trade name, made by Gibco) culture medium at 37° C. under 5% CO2. Hydrogen peroxide was added to the culture medium to a final concentration of 10 μM to bring about stimulation for a 15-minute period, and the culture broth was then transferred to Neurobasal Media culture medium (made by Gibco) containing no hyaluronic acid fragments; to the same culture medium containing hyaluronic acid fragment (L3mer) in a final concentration of 100 ng/ml; or to the same culture medium containing hyaluronic acid fragment (L3mer) plus TLR4/MD2 added to a final concentration of 10 μg/ml, and cultured for 24 hours.
After 24 hours, the cells were examined with an inverted microscope.

SMILES	Average pixel count [1]	suppression of cellular aging with TLR4/MD2 added ([2]; 100 ng/ml plus TLR4/MD2 10 μg/ml)	hydrogen peroxide-induced cellular aging (vacuolar degeneration and hypertrophy) ([2]; hydrogen peroxide 10 μM, 100 ng/ml)
CC(=O)N[C@H]1[C@H](O[C@H]2[C@H](O)[C@@H](O)[C@H](O[C@H]3[C@H](O)[C@@H](CO)OC(O)[C@@H]3NC(C)=O)O[C@@H]2C(=O)O)O[C@H](CO)[C@@H](O)[C@@H]1O[C@@H]1O[C@H](C(=O)O)[C@@H](O)[C@H](O)[C@H]1O (stereo partly drawn) [4mer, GlcA(-GlcNAc-GlcA)1-GlcNAc]	124515.9333	–	–
CC(=O)NC1C(O[C@@H]2OC(C(=O)O)[C@@H](O)C(O)C2O)[C@H](O)C(CO)O[C@H]1O[C@@H]1C(C(=O)O)O[C@@H](OCCCN=[N+]=[N-])C(O)C1O (stereo partly drawn) [L3mer]	–	inhibited by addition of TLR4/MD2	suppressed
